Results published in patent US20030212088A1, “Methods and compositions for treating, preventing or delaying onset of a neoplasm” (priority 2002, published 2003).
Counter-ions that a name gives are not always drawn.

System: Mouse serum IGF-1
Assay: Serum IGF-I radioimmunoassay in CT-26 tumor-bearing mice
Type: in vivo, BALB/c mice
Details: serum collected at sacrifice (day 24); Pegvisomant 5.0 mg/day s.c.; Irinotecan 100 mg/kg on post-inoculation days 7, 14, 21
Protocol: CT-26 cells (mouse colon carcinoma) are grown in DMEM with 10% fetal bovine serum until the cells are approximately 50% confluent. Trypsin is used to lift adherent cells from the surface of tissue culture flask. The cells are then washed and suspended in Hank's buffered saline solution. BALB/c mice (Jackson Laboratories, Bar Harbor, Me.), 5-8 weeks of age, are used in this example. Initially, the spleen is mobilized using a left flank incision. Direct splenic injections of CT-26 cells is performed (1×10^4 viable cells, 0.05 ml total volume). Wound clips are used to close the incision. This is a syngenic colon cancer model so the host animals are not immunocompromised.
Injections are administered on the flank opposite the side of the wound clips from the splenic injection using a 25-gauge needle on a tuberculin syringe.
Mice are sacrificed on day 24. […] Treatment groups are compared using a standard t-test.
Mouse serum IGF-1 is measured by radioimmunoassay (RIA) after acid-ethanol extraction. Briefly, the serum/extraction mixture is incubated at room temperature for 2 hours, centrifuged, and the supernatant is diluted 1:200 for analysis. IGF-I concentrations are the measured by RIA using a polyclonal rabbit antibody (Nicohls Institute, San Juan Capistrano, Calif.). The assay standards are created with recombinant human IGF-I (Amersham International, Bucks, UK).

Row | Compound | serum IGF-I concentration (mean ± standard error) [µg/L]
1 | Pegvisomant | 50 ± 5.3
2 | CCc1c2c(nc3ccc(OC(=O)N4CCC(N5CCCCC5)CC4)cc13)-c1cc3c(c(=O)n1C2)COC(=O)[C@]3(O)CC [Irinotecan, (4S)-4,11-diethyl-4-hydroxy-9-((4-piperidinopiperidino)carbonyloxy)-1H-pyrano (3′,4′:6,7)indolizino(1,2-b)quinoline-3,14(4H,12H) dione hydrochloride] | 129 ± 5.9
